{"source": "patent US11773420B2", "about": "“Process for enzymatic hydrolysis of lignocellulosic material and fermentation of sugars” (VERSALIS S.P.A., priority 2014, dated 2023)", "system": "cellulase enzyme cocktail TEC210", "assay": "Effect of gluconic acid on enzymatic hydrolysis of pretreated corn stover by TEC210", "assay_type": "biochemical, Rasamsonia", "conditions": "for Glucose release (in %): 6% w/w dm, pH 4.5, 62° C., 50 hours, 5 mg TEC210/g dm", "protocol": "Twenty grams of pretreated corn stover were incubated in a 50 ml Greiner test tube for 50 hours at a dry matter level of 6% w/w, pH 4.5 at 62° C. in the presence of 5 mg of the cellulase enzyme cocktail TEC210 per gram of dry matter and in the presence of 0, 2, 4, 6, or 8 g/l gluconic acid to determine the inhibiting effect of gluconic acid on the hydrolysis of glucan in lignocellulosic feedstock. The experiment is performed at maximum oxygen saturation.\nSamples were taken after 50 hours of incubation and the samples were centrifuged for further analysis in an Eppendorf centrifuge type 5810 for 8 minutes at 4000 rpm. The glucose concentration was measured in the supernatant of each sample by means of HPLC using a Bio-Rad HPX87H column. The glucose release as presented in Table 3 is a direct measure for the enzymatic hydrolysis (glucan hydrolysis). A gluconic acid level of 2 g/l in the supernatant corresponds with 89 g/kg glucan in the lignocellulosic material. This can be calculated as described above with a density of 1.02 kg/I, a pellet factor of 2% and a glucan content of 21.6 g glucan/kg hydrolysate."}
{"smiles": "O=C(O)[C@H](O)[C@@H](O)[C@H](O)[C@H](O)CO", "note": "[Gluconic acid, gluconic acid]", "values": [{"measurement": "Glucose release (in %)", "setting": "gluconic acid added 2 g/l (89 g/kg glucan)", "result": 90, "unit": "%"}, {"measurement": "Glucose release (in %)", "setting": "gluconic acid added 4 g/l (178 g/kg glucan)", "result": 82, "unit": "%"}, {"measurement": "Glucose release (in %)", "setting": "gluconic acid added 6 g/l (267 g/kg glucan)", "result": 79, "unit": "%"}, {"measurement": "Glucose release (in %)", "setting": "gluconic acid added 8 g/l (356 g/kg glucan)", "result": 77, "unit": "%"}, {"measurement": "effect on glucan hydrolysis", "setting": "higher concentrations of gluconic acid", "result": "negative effect on glucan hydrolysis"}]}
